According to patent US20020137781A1, “Preparation and use of enantiomer-pure 2,4-disubstituted oxazolines” (priority 1999, published 2002):
Where “and” joins values, the source holds several entries; their conditions need not be identical. Equal entries are not always repeated.

System: Dermanyssus gallinae
Assay: Comparative in vitro effect on Dermanyssus gallinae
Conditions: for Type of activity: at the EC100 of the same table line; for EC100 (minimum dosage to reach 100% mortality): fed adult female mites, evaluated after 5 days
Experimental: 15 fed adult female mites of the genus Dermanyssus gallinae fixed on a plastic adhesive film are brought into contact with 50 μl of an aqueous suspension or emulsion of the test substance. The test is carried out with concentrations of 32, 10, 3.2, 1.0, 0.32 to 0.1 ppm. After drying, the film is stuck onto a glass disc. This creates a kind of air bubble around each mite, the lower surface of which is formed by the glass disc and the upper surface by a bulging of the adhesive film. This bubble contains sufficient air for the mite to avoid suffocating. After 5 days, the effect of the test substance is evaluated with the aid of a stereo-microscope by assessing the effect on mortality, egg deposition, egg quality, hatching rate, pupation rate, and development of protonymphs according to the following 4 criteria:
1. if 9 to 10 mites are dead, this indicates a lethal effect (M);
3. if 2 or more mites survive and produce eggs, but no larvae hatch from these eggs and no protonymphs develop, this indicates a development-inhibiting effect (H);
4. if 2 or more mites survive and lay the usual number of normal eggs, from which larvae hatch and develop into protonymphs, this indicates no activity.

Compound | concentration that completely inhibits the development of protonymphs (after 5 days) | type of effect (points 1-4) (after 5 days) | Type of activity | EC100 (minimum dosage to reach 100% mortality) | concentration to reach an activity of type 1 (activity of type 1) | concentration to reach a considerable efficacy (only activity of type 3) (activity of type 3) | Type of activity (listed as Enantiomer B) | type of effect (points 1-4) at concentrations up to 10 ppm (concentrations up to 10 ppm) | EC100 (minimum dosage to reach 100% mortality) (listed as Enantiomer B)
Fc1cccc(F)c1C1=NC(c2ccc(-c3ccc(C(F)(F)F)cc3)cc2)CO1 (racemic) [Racemate, 2-(2,6-difluorophenyl)-4-(4′-trifluoromethylbiphenyl-4-yl)-4,5-dihydrooxazole, reference compound] | ≥ 0.02 ppm | 1 | 1 | 0.2 ppm |  |  |  |  | 
Fc1cccc(F)c1C1=NC(c2ccc(-c3ccc(C(F)(F)F)cc3)cc2)CO1 (single isomer, unassigned) [1.2, 2-(2,6-difluoro-phenyl)-4-(4′-trifluoromethylbiphenyl-4-yl)-4,5-dihydro-oxazole] |  |  |  |  | at least 32 ppm | at least 20 ppm | 3) and 1 | 4 | 20.0 ppm and 32.0 ppm
